Assay results as given in patent US20070191431A1, “2-Amino-5-piperidinylimidazolone compounds and use thereof for beta-secretase modulation” (Wyeth, priority 2005, published 2007).
Read-outs that look alike come from different tables or passages of the source.

What was measured:
human BACE1 = human BACE1 (Homo sapiens, UniProt P56817); assay: BACE-1 fluorescent kinetic assay (Example 88); assay type: biochemical
Experimental: Evaluation of BACE-1 Binding Affinity of Test Compounds
Fluorescent Kinetic Assay
Dilution and mixing steps: total reaction volume: 100 μL
100 μM substrate dilution in 1× PBS was prepared, and
Fluorescence Readings: Readings at Aex 320 nm and Aem 420 nm are taken every 40 sec for 30 min at room temperature and the linear slope for substrate cleavage rate (vi) determined.

[1] = 10 nM enzyme, 25 μM substrate WABC-6, Na-Acetate pH 4.5, room temperature, read-out: BACE1 (IC50 μM)

human BACE1, sequence (P56817 46-501): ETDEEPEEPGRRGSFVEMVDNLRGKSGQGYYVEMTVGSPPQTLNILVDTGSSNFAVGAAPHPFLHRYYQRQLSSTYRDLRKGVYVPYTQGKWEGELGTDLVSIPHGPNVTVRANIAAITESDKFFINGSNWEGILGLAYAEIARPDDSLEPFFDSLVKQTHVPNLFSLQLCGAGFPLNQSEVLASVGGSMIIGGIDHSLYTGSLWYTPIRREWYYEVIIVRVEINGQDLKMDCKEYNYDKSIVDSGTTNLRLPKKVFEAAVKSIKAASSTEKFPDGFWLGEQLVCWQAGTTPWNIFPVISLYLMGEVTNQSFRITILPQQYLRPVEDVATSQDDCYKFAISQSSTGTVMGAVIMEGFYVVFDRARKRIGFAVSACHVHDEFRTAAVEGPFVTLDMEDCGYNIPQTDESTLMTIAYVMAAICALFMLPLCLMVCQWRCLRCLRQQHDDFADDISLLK

| IC50 (human BACE1; [1]) [µM] | melting point | SMILES | IC50 (human BACE1) [µM] |
| --- | --- | --- | --- |
| 0.01 to 1 | 160 to 164 °C | COCC(=O)Nc1cccc(C2(C3CCN(C(=O)c4ccc(C#N)cc4)CC3)N=C(N)N(C)C2=O)c1 (stereo not shown) [Example 52] | – |
| 0.01 to 1 | 184 to 187 °C | COCC(=O)Nc1cccc(C2(C3CCN(C(=O)c4ccc(O)cc4)CC3)N=C(N)N(C)C2=O)c1 (stereo not shown) [Example 34, N-(3-{2-Amino-4-[1-(4-hydroxybenzoyl)piperidin4-yl]-1-methyl-5-oxo-4,5-dihydro-1H-imidazol-4-yl}phenyl)-2-methoxyacetamide] | – |
| 0.01 to 1 | 150 to 153 °C | COCC(=O)Nc1cccc(C2(C3CCN(C(=O)c4cccc(F)c4)CC3)N=C(N)N(C)C2=O)c1 (stereo not shown) [Example 50] | – |
| 0.01 to 1 | 148 to 153 °C | CN1C(=O)C(c2cccc(-c3ccccc3)c2)(C2CCN(C(=O)c3ccco3)CC2)N=C1N (stereo not shown) [Example 7, 2-amino-5-(1,1′-biphenyl-3-yl)-5-[1-(2-furoyl)piperidin-4-yl]-3-methyl-3,5-dihydro-4H -imidazol-4-one] | – |
| > 3 | 120 to 123 °C | COCC(=O)Nc1cccc(C2(C3CCN(Cc4ccccc4)CC3)N=C(N)N(C)C2=O)c1 (stereo not shown) [Example 59, N{3-[2-Amino-4-(1-benzylpiperidin-4-yl)-1-methyl-5-oxo-4,5-dihydro-1H-imidazol-4-yl]phenyl}-2-methoxyacetamide] | – |
| 0.01 to 1 | 134 to 136 °C | COCC(=O)Nc1cccc(C2(C3CCN(C(=O)C4CCCC4)CC3)N=C(N)N(C)C2=O)c1 (stereo not shown) [Example 40] | – |
| 1.01 to 3 | 133 to 135 °C | CN1C(=O)C(c2cccc(-c3ccccc3)c2)(C2CCN(C(=O)c3ccc4c(c3)OCO4)CC2)N=C1N (stereo not shown) [Example 14, 2-amino-5-[1-(1,3-benzodioxol-5-ylcarbonyl)piperidin-4-yl]-5-(1,1′-biphenyl-3-yl)-3-methyl-3,5-dihydro4H-imidazol-4-one] | – |
| > 3 | 170 to 174 °C | COCC(=O)Nc1cccc(C2(C3CCNCC3)N=C(N)N(C)C2=O)c1 (stereo not shown) [Example 32, N-[3-(2-Amino-1-methyl-5-oxo4-piperldin-4-yl-4,5-dihydro-1H -imidazol-4-yl)phenYl]-2-methoxyacetamide] | – |
| 0.01 to 1 | 150 to 153 °C | COc1cncc(-c2cccc(C3(C4CCN(C(=O)c5ccccc5)CC4)N=C(N)N(C)C3=O)c2)c1 (stereo not shown) [Example 82, 2-amino-5-(1-benzoylpiperidin-4-yl)-5-[3-(5-methoxypyridin-3-yl)phenyl]-3-methyl-3,5-dihydro-4H-imidazol-4-one] | – |
| 0.01 to 1 | 105 to 107 °C | COCC(=O)Nc1cccc(C2(C3CCN(C(=O)CCC(C)C)CC3)N=C(N)N(C)C2=O)c1 (stereo not shown) [Example 49] | – |
| 0.01 to 1 | > 130 °C (dec.) | COCC(=O)Nc1cccc(C2(C3CCN(C(=O)C4CC4)CC3)N=C(N)N(C)C2=O)c1 (stereo not shown) [Example 37] | – |
| > 3 | 135 to 138 °C | C#CCCC(=O)N1CCC(C2(c3cccc(NC(=O)COC)c3)N=C(N)N(C)C2=O)CC1 (stereo not shown) [Example 47] | – |
| 1.01 to 3 | 121 to 124 °C | CN1C(=O)C(c2cccc(-c3ccccc3)c2)(C2CCN(C(=O)COCc3ccccc3)CC2)N=C1N (stereo not shown) [Example 6, 2-amino-5-{1-[(benzyloxy)acetyl]piperidin4-yl}-5-(1,1′-biphenyl-3-yl)-3-methyl-3,5-dihydro-4H-imidazol-4-one] | – |
| 0.01 to 1 | 139 to 142 °C | COCC(=O)Nc1cccc(C2(C3CCN(C(=O)c4cc5ccccc5o4)CC3)N=C(N)N(C)C2=O)c1 (stereo not shown) [Example 46] | – |
| 0.01 to 1 | 131 to 133 °C | COCC(=O)Nc1cccc(C2(C3CCN(C(=O)CC4CCCCC4)CC3)N=C(N)N(C)C2=O)c1 (stereo not shown) [Example 38] | – |
| 0.01 to 1 | 152 to 154 °C | CN1C(=O)C(c2cccc(-c3ccccc3)c2)(C2CCN(C(=O)c3ccc(C#N)cc3)CC2)N=C1N (stereo not shown) [Example 16, 4-({4-[2-amino-4-(1,1′-biphenyl-3-yl)-1-methyl-5-oxo-4,5-dihydro-1H -imidazol-4-yl]piperidin-1-yl}carbonyl)benzonitrile] | – |

| IC50 (human BACE1; [1]) [µM] | melting point | SMILES | IC50 (human BACE1) [µM] |
| --- | --- | --- | --- |
| 0.01 to 1 | 161 to 163 °C | COCC(=O)Nc1cccc(C2(C3CCN(C(=O)c4ccc(C(=O)OC)cc4)CC3)N=C(N)N(C)C2=O)c1 (stereo not shown) [Example 35, Methyl 4-{[4-(2-amino-4-{3-[(methoxyacetyl)amino]phenyl}-1-methyl-5-oxo-4,5-dihydro-1H-imidazol-4-yl)piperidin-1-yl]carbonyl}benzoate] | – |
| 0.01 to 1 | 148 to 152 °C | COCC(=O)Nc1cccc(C2(C3CCN(C(=O)c4cccs4)CC3)N=C(N)N(C)C2=O)c1 (stereo not shown) [Example 55] | – |
| 0.01 to 1 | 165 to 166 °C | CN1C(=O)C(c2cccc(-c3cccc(Cl)c3)c2)(C2CCN(C(=O)c3ccccc3)CC2)N=C1N (stereo not shown) [Example 85, 2-amino-5-(1-benzoylpiperidin-4-yl)-5-(3′-chlorobiphenyl-3-yl)-3-methyl-3,5-dihydro-4H-imidazol-4-one] | – |
| 0.01 to 1 | 118 to 120 °C | COCC(=O)Nc1cccc(C2(C3CCN(C(=O)C4CCC(=O)O4)CC3)N=C(N)N(C)C2=O)c1 (stereo not shown) [Example 44] | – |
| > 3 | 138 to 139 °C | CN1C(=O)C(c2cccc(-c3ccccc3)c2)(C2CCN(S(=O)(=O)c3ccccc3)CC2)N=C1N (stereo not shown) [Example 8, 2-amino-5-(1,1′-biphenyl-3-yl)-3-methyl-5-[1-(phenylsulfonyl)piperidin-4-yl]-3,5-dihydro-4H-imidazol-4-one] | – |
| 0.01 to 1 | 138 to 140 °C | CN1C(=O)C(c2cccc(-c3ccccc3)c2)(C2CCN(C(=O)c3ccsc3)CC2)N=C1N (stereo not shown) [Example 12, 2-amino-5-(1,1′-biphenyl-3-yl)-3-methyl-5-[1-(thien-3-ylcarbonyl)piperidin-4-yl]-3,5-dihydro-4H-imidazol-4-one] | – |
| 1.01 to 3 | 102 to 105 °C | CCC(CC)C(=O)N1CCC(C2(c3cccc(NC(=O)COC)c3)N=C(N)N(C)C2=O)CC1 (stereo not shown) [Example 43] | – |
| 0.01 to 1 | 133 to 135 °C | CCCc1ccc(C(=O)N2CCC(C3(c4cccc(-c5ccccc5)c4)N=C(N)N(C)C3=O)CC2)cc1 (stereo not shown) [Example 21, 2-amino-5-(1,1′-biphenyl-3-yl)-3-methyl-5-[1-(4-propylbenzoyl)piperidin4-yl]-3,5-dihydro4H-imidazol-4-one] | – |
| 1.01 to 3 | 79 to 80 °C | COCC(=O)Nc1cccc(C2(C3CCN(C(=O)COC)CC3)N=C(N)N(C)C2=O)c1 (stereo not shown) [Example 56] | – |
| 0.01 to 1 | 149 to 152 °C | COCC(=O)Nc1cccc(C2(C3CCN(C(=O)c4ccc(OCc5ccccc5)cc4)CC3)N=C(N)N(C)C2=O)c1 (stereo not shown) [Example 33] | – |
| 0.01 to 1 | 152 to 154 °C | CN1C(=O)C(c2cccc(-c3cccnc3F)c2)(C2CCN(C(=O)c3ccccc3)CC2)N=C1N (stereo not shown) [Example 80, 2-amino-5-(1-benzoylpiperidin-4-yl)-5-[3-(2-fluoropyridin-3-yl)phenyl]-3-methyl-3,5-dihydro-4H-imidazol-4-one] | – |
| 1.01 to 3 | 145 to 147 °C | Cc1cc(C(=O)N2CCC(C3(c4cccc(-c5ccccc5)c4)N=C(N)N(C)C3=O)CC2)cc(Cl)n1 (stereo not shown) [Example 11, 2-amino-5-(1,1′-biphenyl-3-yl)-5-[1-(2-chloro-6-methylisonicotinoyl)piperidin-4-yl]-3-methyl-3,5-dihydro-4H-imidazol-4-one] | – |
| 0.01 to 1 | 145 to 148 °C | COCC(=O)Nc1cccc(C2(C3CCN(C(=O)C(C)C)CC3)N=C(N)N(C)C2=O)c1 (stereo not shown) [Example 42] | – |
| 1.01 to 3 | 141 to 143 °C | CN1C(=O)C(c2cccc(-c3ccccc3)c2)(C2CCN(C(=O)c3cccc(C#N)c3)CC2)N=C1N (stereo not shown) [Example 17, 3-({4-[2-amino-4-(1,1′-biphenyl-3-yl)-1-methyl-5-oxo-4,5-dihydro-1H -imidazol-4-yl]piperidin-1-yl}carbonyl)benzonitrile] | – |
| 0.01 to 1 | > 150 °C (dec.) | CN1C(=O)C(c2cccc(-c3cc(F)ccc3F)c2)(C2CCN(C(=O)c3ccccc3)CC2)N=C1N (stereo not shown) [Example 86, 2-amino-5-(1-benzoylpiperidin-4-y)-5-(2′,5′-difluorobiphenyl-3-yl)-3-methyl-3,5-dihydro-4H-imidazol-4-one] | – |

| SMILES | IC50 (human BACE1; [1]) [µM] | melting point | IC50 (human BACE1) [µM] |
| --- | --- | --- | --- |
| CN1C(=O)C(c2ccccc2)(C2CCNCC2)N=C1N (stereo not shown) [Example 27, 2-Amino-3-methyl-5-phenyl-5-piperidin-4-yl-3,5-dihydro-4H -imidazol-4-one] | – | 269 to 271 °C | > 3 |
